Measurements published in BindingDB's records for patent WO2025049746 (Eikon Therapeutics, 2025).
pIC50: −log10 of the molar value.

Legend:
[1] = biological target: T1, Bifunctional 3'-5' exonuclease/ATP-dependent helicase WRN [480-1251] (UniProt Q14191); assay: Biochemical Activity Assays
T1 construct: 480-1251

[2] = biological target: Bifunctional 3'-5' exonuclease/ATP-dependent helicase WRN (Homo sapiens, UniProt Q14191); assay: ADP-Glo Kinase Assay
Description: ATPase activity was measured using the ADP-Glo Kinase Assay following the manufacturers recommended protocol.

Chain of Bifunctional 3'-5' exonuclease/ATP-dependent helicase WRN (Q14191 whole entry): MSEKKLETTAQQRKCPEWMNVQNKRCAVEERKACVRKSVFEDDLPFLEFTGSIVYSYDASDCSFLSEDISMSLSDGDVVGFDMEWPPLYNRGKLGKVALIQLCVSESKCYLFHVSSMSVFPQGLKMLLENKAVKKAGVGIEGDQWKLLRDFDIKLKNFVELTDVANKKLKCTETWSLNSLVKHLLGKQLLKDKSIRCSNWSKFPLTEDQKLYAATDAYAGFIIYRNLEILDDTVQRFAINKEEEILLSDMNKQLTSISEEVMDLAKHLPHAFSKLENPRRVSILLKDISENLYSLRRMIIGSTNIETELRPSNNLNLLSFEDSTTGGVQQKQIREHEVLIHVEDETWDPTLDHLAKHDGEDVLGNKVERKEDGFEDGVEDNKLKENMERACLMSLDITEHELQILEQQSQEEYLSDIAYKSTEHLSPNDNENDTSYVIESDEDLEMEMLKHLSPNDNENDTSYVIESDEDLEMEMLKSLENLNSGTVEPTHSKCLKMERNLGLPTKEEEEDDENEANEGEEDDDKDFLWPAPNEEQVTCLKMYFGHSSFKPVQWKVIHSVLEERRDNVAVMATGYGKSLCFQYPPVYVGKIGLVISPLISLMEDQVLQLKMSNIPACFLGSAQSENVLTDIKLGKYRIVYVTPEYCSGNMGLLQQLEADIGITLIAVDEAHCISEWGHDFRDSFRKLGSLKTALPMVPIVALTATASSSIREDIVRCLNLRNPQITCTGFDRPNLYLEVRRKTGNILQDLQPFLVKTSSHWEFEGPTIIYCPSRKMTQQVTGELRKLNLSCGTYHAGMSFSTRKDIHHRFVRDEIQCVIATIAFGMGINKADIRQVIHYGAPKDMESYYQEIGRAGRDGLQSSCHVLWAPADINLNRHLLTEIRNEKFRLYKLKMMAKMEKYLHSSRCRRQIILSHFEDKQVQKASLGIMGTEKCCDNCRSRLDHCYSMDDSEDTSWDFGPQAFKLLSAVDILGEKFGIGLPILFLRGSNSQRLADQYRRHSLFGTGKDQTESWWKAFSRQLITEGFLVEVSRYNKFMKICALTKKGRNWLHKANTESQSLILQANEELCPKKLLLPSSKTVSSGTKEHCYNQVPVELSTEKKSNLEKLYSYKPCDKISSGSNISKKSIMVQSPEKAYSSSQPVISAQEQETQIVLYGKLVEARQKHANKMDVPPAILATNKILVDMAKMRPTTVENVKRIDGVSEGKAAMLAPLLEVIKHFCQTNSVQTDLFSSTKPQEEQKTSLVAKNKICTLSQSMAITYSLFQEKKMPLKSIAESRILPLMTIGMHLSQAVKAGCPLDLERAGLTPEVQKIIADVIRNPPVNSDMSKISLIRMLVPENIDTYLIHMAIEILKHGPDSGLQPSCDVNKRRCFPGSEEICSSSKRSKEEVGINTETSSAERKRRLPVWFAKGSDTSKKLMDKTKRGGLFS
T1 sequence (Q14191 480-1251): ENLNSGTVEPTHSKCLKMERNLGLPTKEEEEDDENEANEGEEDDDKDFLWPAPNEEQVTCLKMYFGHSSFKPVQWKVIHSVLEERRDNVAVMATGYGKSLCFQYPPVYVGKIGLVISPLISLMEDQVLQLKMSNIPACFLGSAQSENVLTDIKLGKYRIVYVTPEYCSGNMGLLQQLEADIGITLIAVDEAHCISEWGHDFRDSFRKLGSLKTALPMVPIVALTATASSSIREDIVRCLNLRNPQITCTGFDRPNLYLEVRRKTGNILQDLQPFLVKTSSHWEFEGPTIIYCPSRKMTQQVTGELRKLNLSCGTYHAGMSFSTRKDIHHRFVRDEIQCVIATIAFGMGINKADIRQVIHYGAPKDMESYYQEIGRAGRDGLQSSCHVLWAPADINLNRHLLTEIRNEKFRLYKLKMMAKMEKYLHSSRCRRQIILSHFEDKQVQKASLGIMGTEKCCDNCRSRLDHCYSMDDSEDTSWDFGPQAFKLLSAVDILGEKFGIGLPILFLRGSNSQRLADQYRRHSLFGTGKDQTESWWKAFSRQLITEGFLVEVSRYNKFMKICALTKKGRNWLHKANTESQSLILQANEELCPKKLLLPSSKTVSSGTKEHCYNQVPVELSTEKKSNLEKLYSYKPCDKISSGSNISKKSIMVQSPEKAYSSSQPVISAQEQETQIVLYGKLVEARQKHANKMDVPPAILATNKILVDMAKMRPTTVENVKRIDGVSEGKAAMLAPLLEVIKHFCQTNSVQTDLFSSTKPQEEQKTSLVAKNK

SMILES	pIC50 [1]	pIC50 [2]
CCc1c(N2CCN(C(=O)c3ncnc(C)c3O)CC2)c(=O)n2nc(C3=CCOCC3)nc2n1CC(=O)NC12CC(C)(C1)C2(F)F [WO2025049746, Example 371]	5.96	5.83
CCc1c(N2CCN(C(=O)c3ncnc(C)c3O)CC2)c(=O)n2nc(C3=CCOCC3)nc2n1CC(=O)NC1CC2(CC(F)C2)C1 (stereo unspecified) [WO2025049746, Example 372]	5.86	5.74
CCc1c(N2CCN(C(=O)c3ncnc(C)c3O)CC2)c(=O)n2nc(C3=CCOCC3)nc2n1CC(=O)Nc1c(Cl)cc(C(F)(F)F)c2scnc12 [WO2025049746, Example 373]	7.29	7.19
CCc1c(N2CCN(C(=O)c3ncnc(C)c3O)CC2)cn2nc(C3=CCOCC3)nc2c1CC(=O)Nc1ccc(C(F)(F)F)cc1Cl [WO2025049746, Example 374]	4.53	4.53
Cc1ncnc(C(=O)N2CCN(c3c(OC(F)F)n(CC(=O)Nc4ccc(C(F)(F)F)cc4Cl)c4nc(-c5ccc6c(c5)COC6)nn4c3=O)CC2)c1O [WO2025049746, Example 375]	5.31	5.94
CCc1c(N2CCN(C(=O)c3ccccc3NS(C)(=O)=O)CC2)c(=O)n2nc(-c3cccc4c3OCCO4)nc2n1CC(=O)Nc1ccc(C(F)(F)F)cc1Cl [WO2025049746, Example 378]	7.02	6.81
CCc1c(N2CCN(C(=O)c3ccccc3NS(=O)(=O)C3CC3)CC2)c(=O)n2nc(-c3cccc4c3OCCO4)nc2n1CC(=O)Nc1ccc(C(F)(F)F)cc1Cl [WO2025049746, Example 379]	6.87	6.69
CCc1c(N2CCN(C(=O)c3ncnc(C)c3O)CC2)c(=O)n2nc(N(C)C)nc2n1CC(=O)Nc1ccc(SC(F)(F)F)cc1 [WO2025049746, Example 392]	6.40	6.33
CCc1c(N2CCN(C(=O)c3ncnc(C)c3O)CC2)c(=O)n2nc(-c3ccc4c(c3)CCOC4)nc2n1CC(=O)Nc1ccc(SC(F)(F)F)cc1 [WO2025049746, Example 393]	6.38	6.30
CCc1c(N2CCN(C(=O)c3ncnc(C)c3O)CC2)c(=O)n2nc(-c3cccc4c3OCO4)nc2n1CC(=O)Nc1ccc(SC(F)(F)F)cc1 [WO2025049746, Example 394]	6.23	6.12
CCc1c(N2CCN(C(=O)c3ncnc(C)c3O)CC2)c(=O)n2nc(-c3ccc4c(c3)CCOC4)nc2n1CC(=O)Nc1ccc(SC(F)(F)F)cc1Cl [WO2025049746, Example 395]	7.46	7.37
CCc1c(N2CCN(C(=O)c3ncnc(C)c3O)CC2)c(=O)n2nc(N(C)C)nc2n1CC(=O)Nc1ccc(SC(F)(F)F)cc1Cl [WO2025049746, Example 396]	7.44	7.38
CCc1c(N2CCN(C(=O)c3ncnc(C)c3O)CC2)c(=O)n2nc(-c3ccc4c(c3)CCOC4)nc2n1CC(=O)Nc1ccc(OC(F)(F)Cl)cc1 [WO2025049746, Example 398]	7.47	7.37
CCc1c(N2CCN(C(=O)c3ncnc(C)c3O)CC2)c(=O)n2nc(-c3cccc4c3OCCO4)nc2n1CC(=O)Nc1ccc(SC(F)(F)F)cc1Cl [WO2025049746, Example 399]	6.94	6.85
CCc1c(N2CCN(C(=O)c3ncnc(C)c3O)CC2)c(=O)n2nc(-c3cccc4c3OCO4)nc2n1CC(=O)Nc1ccc(SC(F)(F)F)cc1Cl [WO2025049746, Example 400]	6.99	6.89
CCc1c(N2CCN(C(=O)c3ncnc(C)c3O)CC2)c(=O)n2nc(N(C)C)nc2n1C(F)(F)C(=O)Nc1ccc(C(F)(F)F)cc1Cl [WO2025049746, Example 401]	7.35	7.23
CCc1c(N2CCN(C(=O)c3ncnc(C)c3O)CC2)c(=O)n2nc(-c3ccc4c(c3)CCOC4)nc2n1C(F)(F)C(=O)Nc1ccc(C(F)(F)F)cc1Cl [WO2025049746, Example 402]	7.59	7.49
CCc1c(N2CCN(C(=O)c3ncnc(C)c3O)CC2)c(=O)n2nc(-c3ccc4c(c3)CCO4)nc2n1CC(=O)Nc1ccc(Cl)c(OC(F)F)c1Cl [WO2025049746, Example 405]	7.46	7.36
CCc1c(N2CCN(C(=O)c3ncnc(C)c3O)CC2)c(=O)n2nc(-c3ccc4c(c3)CCOC4)nc2n1CC(=O)Nc1ccc(Cl)c(OC(F)F)c1Cl [WO2025049746, Example 406]	7.44	7.34
CCc1c(N2CCN(C(=O)c3ncnc(C)c3O)CC2)c(=O)n2nc(-c3ccc4c(c3)COC4)nc2n1CC(=O)Nc1ccc(Cl)c(OC(F)F)c1Cl [WO2025049746, Example 407]	7.60	7.52
CCc1c(N2CCN(C(=O)c3cc(C(C)C)c(O)cc3O)CC2)c(=O)n2nc(-c3ccc4c(c3)COC4)nc2n1CC(=O)Nc1ccc(C(F)(F)F)cc1Cl [WO2025049746, Example 408]	5.92	5.90
CCc1c(N2CCN(C(=O)c3ncnc(C)c3O)CC2)c(=O)n2nc(-c3ccc4c(c3)COC4)nc2n1CC(=O)Nc1ccc(SC(F)(F)F)cc1Cl [WO2025049746, Example 409]	7.60	7.51
CCc1c(N2CCN(C(=O)c3ncnc(C)c3O)CC2)c(=O)n2nc(-c3ccc4c(c3)CCO4)nc2n1CC(=O)Nc1ccc(SC(F)(F)F)cc1Cl [WO2025049746, Example 410]	7.49	7.39
CCc1c(N2CCN(C(=O)c3ncnc(C)c3O)CC2)c(=O)n2nc(-c3cccc4c3OCCO4)nc2n1CC(=O)Nc1ccc(SC(F)(F)F)cc1 [WO2025049746, Example 411]	6.63	6.38
CCc1c(N2CCN(C(=O)c3ncnc(N4CC(F)(F)C4)c3O)CC2)c(=O)n2nc(-c3ccc4c(c3)COC4)nc2n1CC(=O)Nc1ccc(C(F)(F)F)cc1Cl [WO2025049746, Example 412]	7.54	7.43
CCc1c(N2CCN(C(=O)c3cc(C)c(O)cc3O)CC2)c(=O)n2nc(-c3ccc4c(c3)COC4)nc2n1CC(=O)Nc1ccc(C(F)(F)F)cc1Cl [WO2025049746, Example 413]	6.52	6.41
CCc1c(N2CCN(C(=O)c3ncnc(C)c3O)CC2)c(=O)n2nc(-c3ccc4c(c3)COC4)nc2n1CC(=O)Nc1c(Cl)cc(C(F)(F)F)cc1OC1CC1 [WO2025049746, Example 414]	5.95	5.63
CCc1c(N2CCN(C(=O)c3ncnc(N4CC(OC)C4)c3O)CC2)c(=O)n2nc(-c3ccc4c(c3)COC4)nc2n1CC(=O)Nc1ccc(C(F)(F)F)cc1Cl [WO2025049746, Example 415]	9.00	8.52
CCc1c(N2CCN(C(=O)c3ncnc(C)c3O)CC2)c(=O)n2nc(-c3ccc4c(c3)COC4)nc2n1CC(=O)Nc1ccc(C(F)(F)F)cc1OC1CC1 [WO2025049746, Example 416]	6.80	6.41

Now from value to molecule:

pIC50 [1]	pIC50 [2]	SMILES
7.55	7.44	CCc1c(N2CCN(C(=O)c3ncnc(C)c3O)CC2)c(=O)n2nc(-c3ccc4c(c3)COC4)nc2n1CC(=O)Nc1ccc(C(F)(F)F)c2c1CC2 [WO2025049746, Example 376]
7.49	7.35	CCc1c(N2CCN(C(=O)c3ncnc(C)c3O)CC2)c(=O)n2nc(N3CCC3)nc2n1CC(=O)Nc1ccc(C(F)(F)F)c2c1CC2 [WO2025049746, Example 377]
7.36	7.21	CCc1c(N2CCN(C(=O)c3ncnc(C)c3O)CC2)c(=O)n2nc(-c3ccc4c(c3)OCO4)nc2n1CC(=O)Nc1c(Cl)cc(C(F)(F)F)c2c1CC2 [WO2025049746, Example 380]
7.40	7.26	CCc1c(N2CCN(C(=O)c3ncnc(C)c3O)CC2)c(=O)n2nc(-c3ccc4c(c3)OCC4)nc2n1CC(=O)Nc1c(Cl)cc(C(F)(F)F)c2c1CC2 [WO2025049746, Example 381]
5.64	5.53	CCc1c(N2CCN(C(=O)c3ncnc(C)c3O)CC2)c(=O)n2nc(C3C4COCC43)nc2n1CC(=O)Nc1ccc(C(F)(F)F)c2c1CC2 (stereo unspecified) [WO2025049746, Example 382]
7.13	7.03	CCc1c(N2CCN(C(=O)c3ncnc(C)c3O)CC2)c(=O)n2nc(-c3ccc4c(c3)CCO4)nc2n1CC(=O)Nc1c(Cl)cc(C(F)(F)F)c2c1CC2 [WO2025049746, Example 383]
7.54	7.46	CCc1c(N2CCN(C(=O)c3ncnc(C)c3O)CC2)c(=O)n2nc(-c3ccc4c(c3)COC4)nc2n1CC(=O)Nc1c(Cl)cc(C(F)(F)F)c2c1CC2 [WO2025049746, Example 384]
7.06	7.02	CCc1c(N2CCN(C(=O)c3ncnc(C)c3O)CC2)c(=O)n2nc(-c3cccc4c3OCO4)nc2n1CC(=O)Nc1c(Cl)cc(C(F)(F)F)c2c1CC2 [WO2025049746, Example 385]
7.22	7.05	CCc1c(N2CCN(C(=O)c3ncnc(C)c3O)CC2)c(=O)n2nc(-c3cccc4c3COC4)nc2n1CC(=O)Nc1c(Cl)cc(C(F)(F)F)c2c1CC2 [WO2025049746, Example 386]
7.49	7.39	CCc1c(N2CCN(C(=O)c3ncnc(C)c3O)CC2)c(=O)n2nc(N(C)C)nc2n1CC(=O)Nc1c(Cl)cc(C(F)(F)F)c2c1CC2 [WO2025049746, Example 387]
7.24	7.06	CCc1c(N2CCN(C(=O)c3ncnc(C)c3O)CC2)c(=O)n2nc(-c3cccc4c3OCCO4)nc2n1CC(=O)Nc1c(Cl)cc(C(F)(F)F)c2c1CC2 [WO2025049746, Example 388]
6.86	5.93	CCc1c(N2CCN(C(=O)c3ncnc(C)c3O)CC2)c(=O)n2nc(-c3cccc4c3CCOC4)nc2n1CC(=O)Nc1c(Cl)cc(C(F)(F)F)c2c1CC2 [WO2025049746, Example 389]
7.28	7.08	CCc1c(N2CCN(C(=O)c3ncnc(C)c3O)CC2)c(=O)n2nc(-c3cccc4c3COCC4)nc2n1CC(=O)Nc1c(Cl)cc(C(F)(F)F)c2c1CC2 [WO2025049746, Example 390]
7.09	7.03	CCc1c(N2CCN(C(=O)c3ncnc(C)c3O)CC2)c(=O)n2nc(N3CCC3)nc2n1CC(=O)Nc1c(Cl)cc(C(F)(F)F)c2c1CC2 [WO2025049746, Example 391]
